Assay: gradient 5% acetonitrile 3 min, to 50% in 2 min, to 85% in 15 min, held 3 min, 100 µL/min
Conditions: column: Zorbax Extend-C18 2.1 x 50 mm; eluents: water / acetonitrile, 0.1% formic acid
Method in brief: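 Each retention time is based on an adduct peak selected computationally and verified by manual inspection. Measurements used HPLC–quadrupole time-of-flight mass spectrometry in positive and negative ionization mode on mixtures of ~100 pure standards. Chromatography ran on a Zorbax Extend-C18 column (2.1 × 50 mm, 1.8 μm) at 100 μL/min with water and acetonitrile, each containing 0.1% formic acid, and dead and dwell volumes of 40 μL and 900 μL.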

| SMILES | RP-LC retention time [s] |
| --- | --- |
| O=C(COc1ccc(Cl)cc1)N1C[C@H]2C[C@H](C1)[C@H]1CCCC(=O)N1C2 | 714 |
| COc1cccc(S(=O)(=O)N2CC(F)(F)C[C@H]2c2nnc(C)o2)c1 | 785 |
| CSc1cccc(NC(=O)Cn2c(=O)c(CCC(=O)NCC(C)C)nc3ccccc32)c1 | 846 |
| CCC(C)C(NC(=O)Cc1ccccc1Cl)C(=O)Nc1nc2ccccc2[nH]1 (centres undefined) | 776 |
| CCCCN1CCN(c2ccc(-c3csc(S(=O)(=O)N4CCCCC4)c3)nn2)CC1 | 686 |
| COc1ccc(OCC(=O)N2CCN(Cc3noc4ccccc34)CC2)cc1 | 711 |
| Cc1noc(C)c1S(=O)(=O)N1CCC(c2noc(-c3ccccc3)n2)C1 (centres undefined) | 1010 |
| Cc1ccc(NC(=O)C2CC(=O)N(c3ccc4c(c3)CCN4C(=O)C3CC3)C2)c(C)c1 (centres undefined) | 805 |
| CCCn1ncc(N2CCC(C(=O)NC(C)c3cccs3)CC2)cc1=O (centres undefined) | 716 |
| O=C(Cn1ccn2nc(-c3ccccc3)c(CO)c2c1=O)Nc1ccc(F)cc1F | 781 |
| O=C(NCc1cccnc1-c1ccccc1)c1cccc(Br)c1 | 692 |
| CC#CCn1c(N2CCC[C@@H](N)C2)nc2c1c(=O)n(Cc1nc(C)c3ccccc3n1)c(=O)n2C | 670 |
| O=C(NC1CCCCC1NC(=O)c1cccs1)c1cccs1 (centres undefined) | 728 |
| O=C(C1CCCCC1)N1CCN(CC(F)(F)F)CC1 | 796 |
| Nc1ccc2c3c(cccc13)C(=O)NC2=O | 657 |
| CCNS(=O)(=O)c1cccnc1Nc1cccc(Br)c1 | 1040 |
| CCn1cc2c3c(cccc31)CN(C(=O)Nc1cc(C)cc(C)c1)CC2 | 1070 |
| CCOc1ccc(NC(=O)N2CCN(c3nc4cccnc4s3)CC2)cc1 | 752 |
| Cn1cc(CC(=O)NCc2ccccc2Cl)c2cccnc21 | 706 |
| O=C(C1CC(=O)N(c2n[nH]c3ccccc23)C1)N1CCN(c2ccc(Cl)cc2)CC1 (centres undefined) | 799 |
| O=c1n(Cc2cc(F)cc(F)c2)nc2c(S(=O)(=O)N3CCCCC3)cccn12 | 903 |
| CCc1nc(-c2cccc(-c3noc(CNS(=O)(=O)c4ccccc4)n3)c2)cs1 | 1070 |
| CCCCN1CCN(C(=O)c2cc(-c3ccncc3)cn2Cc2ccc(C)cc2)CC1 | 582 |

| SMILES | RP-LC retention time [s] |
| --- | --- |
| Cc1[nH]c(C(=O)N2CCC(CC(=O)NCc3ccc4c(c3)OCO4)CC2)c(C)c1C | 774 |
| COc1ccc(CCNS(=O)(=O)c2c(N)n(C)c(=O)n(C)c2=O)cc1OC | 605 |
| CN(C)c1ccc(N2C=C(C(=O)N3CCOCC3)S(=O)(=O)c3ccc(F)cc32)cc1 | 828 |
| O=C(CSc1ccc(S(=O)(=O)c2ccccc2)nn1)Nc1ccc2c(c1)OCO2 | 822 |
| Cc1cc(C(=O)N2CCc3nn(C)c(=O)n3CC2)n[nH]1 | 560 |
| O=C(Nc1cccc(F)c1)N1CCC(N2CCN(Cc3ccccc3)C2=O)CC1 | 827 |
| COc1ccc(N2CC(c3nnc(NC(=O)c4ccc(Cl)cc4)o3)CC2=O)cc1 (centres undefined) | 835 |
| Cc1cc(C)cc(C(=O)NCc2nn(C)c3ccccc23)c1 | 854 |
| CC(C)C(=O)Nc1ccc(OCc2cc(C(=O)NC3CCCC3)no2)cc1 | 837 |
| COc1cccc(CNC(=O)c2ccc3ncnc(N4CCCC4)c3c2)c1 | 621 |
| CC(C)NC(=O)c1ccc(OCC2CCCN2C(=O)c2cccs2)cc1 (centres undefined) | 818 |
| O=C(c1nnc(-c2ccc(S(=O)(=O)N3CCCCC3)cc2)o1)N1CCC(N2CCCCC2)CC1 | 654 |
| COc1ccccc1CNC(=O)c1sc(-c2cn(C(C)C)c3ncccc23)nc1C | 1030 |
| Cc1ccccc1NC(=O)C1CCN(C(=O)C2Sc3ccccc3NC2=O)CC1 (centres undefined) | 741 |
| Cc1c(-c2noc(-c3ccc4c(c3)OCO4)n2)nnn1Cc1cccc(F)c1 | 990 |
| Cc1ccc(S(=O)(=O)N2C(=O)CCC2C(=O)NC2CCCCCCC2)cc1C (centres undefined) | 1060 |
| CCCCN1C(=O)C(C)(C(=O)NC2CCN(Cc3ccccc3)CC2)Oc2cccnc21 (centres undefined) | 694 |
| COc1ccc(-c2noc(CN3C(=O)COc4cc(Cl)ccc43)n2)cc1OC | 971 |
| Cn1c(=O)c2c(nc3n(-c4ccc(F)cc4)c(-c4ccc(Cl)cc4)cn23)n(C)c1=O | 1010 |
| O=C1COc2ccc(Cl)cc2N1Cc1nc(-c2ccc(OC(F)(F)F)cc2)no1 | 1210 |
| CCOC(=O)c1cnc(N2CCc3ccccc32)[nH]c1=O | 632 |
| CCCSCCCNC(=O)Cn1nc(-n2cccc2)c2c(C)cc(C)nc21 | 1050 |
| CCOC(=O)c1[nH]c(C)c(CN(Cc2ccco2)C(=O)Cc2ccccc2)c1C | 977 |

| SMILES | RP-LC retention time [s] |
| --- | --- |
| COc1cccc(CNC(=O)C2(C)CCCN(C(=O)Nc3cc(Cl)ccc3OC)C2)c1 (centres undefined) | 990 |
| C=CCN(CC=C)S(=O)(=O)c1ccc(C(=O)N2CCc3ccccc3C2)cc1 | 940 |
| Cc1ccnc(NS(=O)(=O)c2ccc(NC(=O)c3nc(-c4cnccn4)no3)cc2)n1 | 608 |
| Cc1cc(-n2c(C)nc3ccccc3c2=O)ccc1NC(=O)C(C)Oc1cccc(Cl)c1 (centres undefined) | 935 |
| Cc1ccccc1Nc1c(-c2cccc(Br)c2)nc2ccccn12 | 799 |
| CCOc1cc(=O)n2c(c1C(=O)OCc1ccccc1F)CCCCC2 | 914 |
| Cc1nnc2c(=O)n(CC(=O)NCCN3CCc4ccccc4C3)c3cccnc3n12 | 738 |
| COc1ccc(OC)c(CNC(=O)CCC2CCN(S(=O)(=O)c3ccccc3)CC2)c1 | 875 |
| Cc1cccc2nnc(N3CCC(C(=O)Nc4cccc(F)c4)CC3)n12 | 697 |
| COc1cc(OC)cc(-c2nc(-c3cn(-c4cccc(F)c4)nn3)no2)c1 | 1090 |
| CCN1CCN(CCCNC(=O)c2c(-c3ccc(Br)s3)noc2C)CC1 | 594 |
| Cn1cc(S(=O)(=O)N2CCC(C(=O)Nc3ccc(F)cc3)CC2)cc1C(=O)N1CCCC1 | 750 |
| CCCCS(=O)(=O)N1CCC(c2cc(N)on2)CC1 | 706 |
| COc1ccc2[nH]c3c(c2c1)CCN1C(=O)N(c2ccc(Cl)c(Cl)c2)C(=O)C31C (centres undefined) | 1120 |
| Cc1cc(=O)n(CC(=O)Nc2ccc(Br)cc2)c(N2CCC(C)CC2)n1 | 793 |
| CCOc1ccc(-c2cn3ccn(-c4ccc(Br)cc4)c(=O)c3n2)cc1 | 931 |
| CC(C)c1c(C(=O)O)nnn1-c1ccc(F)c(F)c1 | 762 |
| CC(=O)Nc1cccc(-c2nc(-c3ccc4c(c3)oc(=O)n4C(C)C)no2)c1 | 936 |
| Cc1ccc2c(c1)C(=O)NC1(CCN(C(=O)c3cc(F)cc(F)c3)CC1)N2C | 752 |
| O=C(c1cnccn1)N1CCCC1c1nc(-c2ccc(F)cc2F)no1 (centres undefined) | 782 |
| O=[N+]([O-])c1c(NCCO)cc(N2CCN(c3ccccn3)CC2)c2nonc12 | 579 |
| COc1ccc(-n2cc(C(=O)NCCc3c[nH]c4ccc(F)cc34)nn2)cc1 | 871 |
| CC(=O)c1cccc(NC(=O)N2CCc3c(c(COc4ccc(F)cc4)nn3C)C2)c1 | 801 |

| SMILES | RP-LC retention time [s] |
| --- | --- |
| CCc1nn2c(CNC(=O)c3cccs3)c(-c3ccccc3)nc2s1 | 866 |
| CCOCCCNCc1ccc(-c2ccc(OC)c(Cl)c2)o1 | 705 |
| N#C/C(=C\c1ccc[nH]1)C(=O)c1ccccc1 | 892 |
| CCCCn1cc(S(=O)(=O)N2CCN(c3ccc(C)cc3)CC2)c2cccnc21 | 1220 |
| Cc1ccccc1-c1nnc(CSc2nnc(NC(=O)c3cccs3)s2)o1 | 908 |
| COc1ccc(C(=O)NC2CCN(c3nnc4ccc(C(F)(F)F)cn34)CC2)cc1 | 751 |
| Cc1ccc(CNC(=O)c2cn(-c3ccc(NC(=O)C4CC4)cn3)cn2)cc1C | 818 |
| CC(C)CN(Cc1cccnc1)C1CN(S(=O)(=O)c2cccnc2)C1 | 645 |
| CCC(C)NC(=O)c1cnn(-c2ccc(-c3nc(C4CC4)no3)cn2)c1C (centres undefined) | 899 |
| O=[N+]([O-])c1ccc(Sc2ncccn2)c([N+](=O)[O-])c1 | 900 |
| CN(CC#N)C(=O)c1nn(C)c2c1COc1ccccc1-2 | 834 |
| Cc1noc(C2(NC(=O)c3ccc4ccccc4n3)CCCCC2)n1 | 1060 |
| CCc1ccc(CNC(=O)Cc2c(C(=O)O)c(C)cn2C)cc1 | 815 |
| CCn1c(=O)c(=O)n(CC(=O)NCc2ccc(C)o2)c2cccnc21 | 688 |
| COc1ccc(-c2ncc(C(=O)Nc3ccc(OC)c(Cl)c3)c(-c3ccncc3)n2)cc1 | 902 |
| COCCn1c(Cc2cccn2C)nnc1SCC(=O)N1CCCc2ccccc21 | 809 |
| Cc1ccc(CNC(=O)Cn2nc3c4ccc(Cl)cc4ncn3c2=O)cc1 | 753 |
| CCc1ccc2[nH]c3c(c(=O)c2c1)CN(CC(=O)NCc1ccc(F)cc1)CC3 | 626 |
| Cc1ccc(CNC(=O)c2cc(-c3ccncc3)cn2C)cc1C | 672 |
| Cc1cccc(C)c1NC1=NCCCS1 | 635 |

Reference: the METLIN SMRT retention time set (Domingo-Almenara et al. 2019)
